Source: ChEMBL document CHEMBL4507261, “Data for DCP probe A-192621” (2021)

Tests used:
[1] = target: Beta-2 adrenergic receptor (Homo sapiens) (UniProt P07550); test: Beta2 (h) Eurofins-Cerep binding assay; set-up: ligand concentration 0.3 nM; details: filed as antagonist, Compound concentration 10.0 uM
[2] = target: Cannabinoid receptor 1 (Homo sapiens) (UniProt P21554); test: CB1 (h) Eurofins-Cerep binding assay; set-up: ligand concentration 0.5 nM; details: filed as agonist, Compound concentration 10.0 uM
[3] = target: Melatonin receptor type 1B (Homo sapiens) (UniProt P49286); test: MT2 (ML1B) (h) Eurofins-Cerep binding assay; set-up: ligand concentration 0.05 nM; details: filed as agonist, Compound concentration 10.0 uM
[4] = target: P2X receptor (Rattus norvegicus) (UniProt P51579+P49653+P51578+Q64663+P47824+P51577+P49654); test: P2X Eurofins-Cerep binding assay; format: protein assay; set-up: ligand concentration 3 nM; details: filed as agonist, Compound concentration 10.0 uM
[5] = target: 5-hydroxytryptamine receptor 2A (Homo sapiens) (UniProt P28223); test: 5-HT2A (h) Eurofins-Cerep binding assay; set-up: ligand concentration 0.5 nM; details: filed as antagonist, Compound concentration 10.0 uM
Sequence of 5-hydroxytryptamine receptor 2A (Homo sapiens) (P28223 whole entry): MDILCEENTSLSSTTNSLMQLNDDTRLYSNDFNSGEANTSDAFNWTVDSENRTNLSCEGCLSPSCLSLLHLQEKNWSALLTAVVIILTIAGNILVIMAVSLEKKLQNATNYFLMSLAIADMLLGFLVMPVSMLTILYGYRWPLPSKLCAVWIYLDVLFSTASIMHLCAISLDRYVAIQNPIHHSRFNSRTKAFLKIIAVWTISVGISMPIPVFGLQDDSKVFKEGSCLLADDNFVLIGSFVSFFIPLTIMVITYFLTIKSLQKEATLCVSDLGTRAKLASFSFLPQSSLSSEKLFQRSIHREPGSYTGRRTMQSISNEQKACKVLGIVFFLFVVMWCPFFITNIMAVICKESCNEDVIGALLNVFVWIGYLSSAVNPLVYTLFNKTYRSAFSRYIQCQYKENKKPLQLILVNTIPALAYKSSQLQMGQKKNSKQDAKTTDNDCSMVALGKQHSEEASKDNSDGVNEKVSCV

[6] = target: Sigma non-opioid intracellular receptor 1 (Homo sapiens) (UniProt Q99720); test: sigma (non-selective) (h) Eurofins-Cerep binding assay; set-up: ligand concentration 10 nM; details: filed as agonist, Compound concentration 10.0 uM
[7] = target: Urotensin-2 receptor (Homo sapiens) (UniProt Q9UKP6); test: UT (h) Eurofins-Cerep binding assay; set-up: ligand concentration 0.1 nM; details: filed as agonist, Compound concentration 10.0 uM
[8] = target: voltage-gated L-type Ca2+ channel (diltiazem site, benzothiazepines) (Rattus norvegicus, UniProt P22002+P27732+Q02485); test: Ca2+ channel (L, diltiazem site) (benzothiazepines) Eurofins-Cerep binding assay; set-up: incubation time 120 min, incubation temperature RT, ligand concentration 15 nM; details: rat cerebral cortex (source of protein), probe [3H]diltiazem (15 nM), compound concentration 10 uM, read-out: % Inhibition of Control Specific Binding (Mean n=2)
[9] = target: Tyrosine-protein kinase ABL1 (Homo sapiens) (UniProt P00519); details: Compound concentration 1000.0 nM
[10] = target: Tyrosine-protein kinase ABL2 (Homo sapiens) (UniProt P42684); details: Compound concentration 1000.0 nM
[11] = target: Activin receptor type-2B (Homo sapiens) (UniProt Q13705); details: Compound concentration 1000.0 nM
[12] = target: ALK tyrosine kinase receptor (Homo sapiens) (UniProt Q9UM73); details: Compound concentration 1000.0 nM
[13] = target: Ankyrin repeat and protein kinase domain-containing protein 1 (Homo sapiens) (UniProt Q8NFD2); details: Compound concentration 1000.0 nM
[14] = target: Serine/threonine-protein kinase B-raf (Homo sapiens) (UniProt P15056); details: Compound concentration 1000.0 nM
[15] = target: Death-associated protein kinase 2 (Homo sapiens) (UniProt Q9UIK4); details: Compound concentration 1000.0 nM
[16] = target: Death-associated protein kinase 3 (Homo sapiens) (UniProt O43293); details: Compound concentration 1000.0 nM
[17] = target: Mitogen-activated protein kinase kinase kinase 12 (Homo sapiens) (UniProt Q12852); details: Compound concentration 1000.0 nM
Sequence of Mitogen-activated protein kinase kinase kinase 12 (Homo sapiens) (Q12852 whole entry): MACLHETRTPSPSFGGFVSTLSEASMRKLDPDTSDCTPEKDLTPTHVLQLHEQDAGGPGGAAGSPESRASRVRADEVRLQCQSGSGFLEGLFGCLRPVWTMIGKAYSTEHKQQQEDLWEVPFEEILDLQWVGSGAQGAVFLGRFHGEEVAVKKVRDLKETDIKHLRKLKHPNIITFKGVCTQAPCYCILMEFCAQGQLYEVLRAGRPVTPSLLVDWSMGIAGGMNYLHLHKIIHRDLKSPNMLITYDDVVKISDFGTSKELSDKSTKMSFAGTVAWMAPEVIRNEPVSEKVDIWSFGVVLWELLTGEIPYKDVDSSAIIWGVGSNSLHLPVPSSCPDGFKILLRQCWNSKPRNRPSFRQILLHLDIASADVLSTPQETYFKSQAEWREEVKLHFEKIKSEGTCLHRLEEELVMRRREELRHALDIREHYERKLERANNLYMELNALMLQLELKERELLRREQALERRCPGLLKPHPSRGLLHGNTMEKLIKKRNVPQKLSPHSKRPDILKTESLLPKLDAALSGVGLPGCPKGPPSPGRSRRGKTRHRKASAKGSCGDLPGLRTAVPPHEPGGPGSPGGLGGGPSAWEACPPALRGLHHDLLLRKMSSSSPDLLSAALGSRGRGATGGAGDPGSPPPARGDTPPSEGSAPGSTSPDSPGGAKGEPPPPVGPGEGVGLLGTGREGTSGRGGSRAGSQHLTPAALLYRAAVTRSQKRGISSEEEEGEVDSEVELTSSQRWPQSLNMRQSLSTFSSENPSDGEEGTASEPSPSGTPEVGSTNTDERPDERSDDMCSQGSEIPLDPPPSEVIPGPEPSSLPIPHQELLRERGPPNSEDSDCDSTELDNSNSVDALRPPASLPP

[18] = target: Mitogen-activated protein kinase 15 (Homo sapiens) (UniProt Q8TD08); details: Compound concentration 1000.0 nM
[19] = test system: Fibroblast growth factor receptor 3 (Homo sapiens), P22607 [G697C]; details: Compound concentration 1000.0 nM
[20] = test system: Receptor-type tyrosine-protein kinase FLT3 (Homo sapiens), P36888 [UNDEFINED MUTATION]; details: Compound concentration 1000.0 nM
[21] = test system: Receptor-type tyrosine-protein kinase FLT3 (Homo sapiens), P36888 [N841I]; details: Compound concentration 1000.0 nM
[22] = target: Serine/threonine-protein kinase ICK (Homo sapiens) (UniProt Q9UPZ9); details: Compound concentration 1000.0 nM
[23] = test system: Mast/stem cell growth factor receptor Kit (Homo sapiens), P10721 [D816H]; details: Compound concentration 1000.0 nM
[24] = target: MAP/microtubule affinity-regulating kinase 4 (Homo sapiens) (UniProt Q96L34); details: Compound concentration 1000.0 nM
[25] = test system: Hepatocyte growth factor receptor (Homo sapiens), P08581 [M1250T]; details: Compound concentration 1000.0 nM
[26] = target: MAP kinase-interacting serine/threonine-protein kinase 1 (Homo sapiens) (UniProt Q9BUB5); details: Compound concentration 1000.0 nM
[27] = target: MAP kinase-interacting serine/threonine-protein kinase 2 (Homo sapiens) (UniProt Q9HBH9); details: Compound concentration 1000.0 nM
[28] = target: Serine/threonine-protein kinase 4 (Homo sapiens) (UniProt Q13043); details: Compound concentration 1000.0 nM
[29] = target: Serine/threonine-protein kinase Nek10 (Homo sapiens) (UniProt Q6ZWH5); details: Compound concentration 1000.0 nM
Sequence of Serine/threonine-protein kinase Nek10 (Homo sapiens) (Q6ZWH5 whole entry): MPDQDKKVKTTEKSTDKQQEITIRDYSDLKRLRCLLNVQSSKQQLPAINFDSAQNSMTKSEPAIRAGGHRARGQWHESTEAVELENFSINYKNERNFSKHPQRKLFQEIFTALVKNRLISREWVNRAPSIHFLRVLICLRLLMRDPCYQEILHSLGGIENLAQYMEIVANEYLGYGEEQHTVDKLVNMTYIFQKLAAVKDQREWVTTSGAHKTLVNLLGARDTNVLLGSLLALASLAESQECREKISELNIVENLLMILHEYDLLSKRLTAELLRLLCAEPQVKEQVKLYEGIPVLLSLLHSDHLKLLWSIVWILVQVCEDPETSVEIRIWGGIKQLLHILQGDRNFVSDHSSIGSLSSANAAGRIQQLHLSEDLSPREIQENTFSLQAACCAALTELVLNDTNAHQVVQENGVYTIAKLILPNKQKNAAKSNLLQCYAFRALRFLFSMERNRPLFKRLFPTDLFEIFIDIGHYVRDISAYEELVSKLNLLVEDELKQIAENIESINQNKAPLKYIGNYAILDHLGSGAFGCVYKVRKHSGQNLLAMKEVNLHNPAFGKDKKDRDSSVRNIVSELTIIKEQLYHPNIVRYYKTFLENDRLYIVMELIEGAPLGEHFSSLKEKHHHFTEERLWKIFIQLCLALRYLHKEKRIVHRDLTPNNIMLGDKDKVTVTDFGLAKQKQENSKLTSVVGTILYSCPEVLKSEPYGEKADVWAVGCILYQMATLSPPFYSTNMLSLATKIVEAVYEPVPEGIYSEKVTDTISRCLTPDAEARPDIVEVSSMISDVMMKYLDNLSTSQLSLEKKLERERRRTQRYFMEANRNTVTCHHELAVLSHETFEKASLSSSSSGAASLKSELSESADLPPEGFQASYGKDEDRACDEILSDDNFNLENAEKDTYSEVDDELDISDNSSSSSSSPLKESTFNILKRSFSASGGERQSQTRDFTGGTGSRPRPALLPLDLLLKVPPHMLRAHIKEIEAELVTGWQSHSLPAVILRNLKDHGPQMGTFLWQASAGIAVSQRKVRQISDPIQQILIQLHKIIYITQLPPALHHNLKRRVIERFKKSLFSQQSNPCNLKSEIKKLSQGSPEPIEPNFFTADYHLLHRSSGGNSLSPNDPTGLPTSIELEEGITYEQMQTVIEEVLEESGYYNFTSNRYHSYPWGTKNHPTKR

[30] = target: Serine/threonine-protein kinase Nek7 (Homo sapiens) (UniProt Q8TDX7); details: Compound concentration 1000.0 nM
Sequence of Serine/threonine-protein kinase Nek7 (Homo sapiens) (Q8TDX7 whole entry, looked up): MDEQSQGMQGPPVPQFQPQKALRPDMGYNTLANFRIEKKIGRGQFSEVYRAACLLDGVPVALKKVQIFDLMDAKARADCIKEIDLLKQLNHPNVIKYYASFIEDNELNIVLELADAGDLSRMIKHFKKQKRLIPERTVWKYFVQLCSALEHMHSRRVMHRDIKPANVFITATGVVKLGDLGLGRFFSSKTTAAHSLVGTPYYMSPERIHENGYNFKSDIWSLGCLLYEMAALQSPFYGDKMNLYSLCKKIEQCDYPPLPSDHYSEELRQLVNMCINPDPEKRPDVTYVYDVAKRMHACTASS

[31] = target: Serine/threonine-protein kinase NIM1 (Homo sapiens) (UniProt Q8IY84); details: Compound concentration 1000.0 nM
[32] = target: Serine/threonine-protein kinase PAK 1 (Homo sapiens) (UniProt Q13153); details: Compound concentration 1000.0 nM
[33] = target: Platelet-derived growth factor receptor alpha (Homo sapiens) (UniProt P16234); details: Compound concentration 1000.0 nM
Sequence of Platelet-derived growth factor receptor alpha (Homo sapiens) (P16234 whole entry, the tested form may be a part): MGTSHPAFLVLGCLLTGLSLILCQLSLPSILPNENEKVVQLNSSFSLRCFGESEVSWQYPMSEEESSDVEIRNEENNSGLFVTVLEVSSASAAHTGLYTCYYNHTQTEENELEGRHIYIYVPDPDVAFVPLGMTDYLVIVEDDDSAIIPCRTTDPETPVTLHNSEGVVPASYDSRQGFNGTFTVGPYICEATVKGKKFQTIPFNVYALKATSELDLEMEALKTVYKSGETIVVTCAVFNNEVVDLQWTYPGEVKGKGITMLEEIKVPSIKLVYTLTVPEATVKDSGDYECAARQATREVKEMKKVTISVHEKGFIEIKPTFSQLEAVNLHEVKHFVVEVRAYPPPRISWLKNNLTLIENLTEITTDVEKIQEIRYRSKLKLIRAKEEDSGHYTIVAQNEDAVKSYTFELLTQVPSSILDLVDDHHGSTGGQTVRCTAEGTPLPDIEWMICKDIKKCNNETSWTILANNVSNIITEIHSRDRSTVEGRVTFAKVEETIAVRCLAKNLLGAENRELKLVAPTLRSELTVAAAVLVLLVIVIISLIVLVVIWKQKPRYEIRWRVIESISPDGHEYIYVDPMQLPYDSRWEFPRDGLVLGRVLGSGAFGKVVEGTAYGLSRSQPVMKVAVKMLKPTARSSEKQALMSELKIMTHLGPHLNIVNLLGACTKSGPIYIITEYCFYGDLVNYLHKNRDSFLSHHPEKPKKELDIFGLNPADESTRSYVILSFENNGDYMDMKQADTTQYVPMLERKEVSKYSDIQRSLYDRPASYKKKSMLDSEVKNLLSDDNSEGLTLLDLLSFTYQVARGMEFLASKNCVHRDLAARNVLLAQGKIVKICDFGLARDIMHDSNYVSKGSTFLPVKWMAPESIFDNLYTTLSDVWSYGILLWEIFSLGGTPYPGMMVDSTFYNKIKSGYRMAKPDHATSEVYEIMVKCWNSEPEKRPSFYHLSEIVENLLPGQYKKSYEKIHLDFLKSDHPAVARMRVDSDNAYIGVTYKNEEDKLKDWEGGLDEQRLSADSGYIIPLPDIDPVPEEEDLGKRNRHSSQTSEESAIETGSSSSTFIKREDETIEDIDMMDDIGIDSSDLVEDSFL

[34] = target: Phosphatidylinositol 4-phosphate 3-kinase C2 domain-containing subunit beta (Homo sapiens) (UniProt O00750); details: Compound concentration 1000.0 nM
[35] = target: Phosphatidylinositol 5-phosphate 4-kinase type-2 beta (Homo sapiens) (UniProt P78356); details: Compound concentration 1000.0 nM
[36] = target: Proto-oncogene tyrosine-protein kinase receptor Ret (Homo sapiens) (UniProt P07949); details: Compound concentration 1000.0 nM
[37] = test system: Proto-oncogene tyrosine-protein kinase receptor Ret (Homo sapiens), P07949 [V804L]; details: Compound concentration 1000.0 nM
[38] = target: Serine/threonine-protein kinase RIO3 (Homo sapiens) (UniProt O14730); details: Compound concentration 1000.0 nM
[39] = target: Proto-oncogene tyrosine-protein kinase ROS (Homo sapiens) (UniProt P08922); details: Compound concentration 1000.0 nM
[40] = target: Tyrosine-protein kinase SYK (Homo sapiens) (UniProt P43405); details: Compound concentration 1000.0 nM
[41] = target: Serine/threonine-protein kinase TAO3 (Homo sapiens) (UniProt Q9H2K8); details: Compound concentration 1000.0 nM
[42] = target: TGF-beta receptor type-2 (Homo sapiens) (UniProt P37173); details: Compound concentration 1000.0 nM
[43] = target: High affinity nerve growth factor receptor (Homo sapiens) (UniProt P04629); details: Compound concentration 1000.0 nM
Sequence of High affinity nerve growth factor receptor (Homo sapiens) (P04629 33-796 limits assumed): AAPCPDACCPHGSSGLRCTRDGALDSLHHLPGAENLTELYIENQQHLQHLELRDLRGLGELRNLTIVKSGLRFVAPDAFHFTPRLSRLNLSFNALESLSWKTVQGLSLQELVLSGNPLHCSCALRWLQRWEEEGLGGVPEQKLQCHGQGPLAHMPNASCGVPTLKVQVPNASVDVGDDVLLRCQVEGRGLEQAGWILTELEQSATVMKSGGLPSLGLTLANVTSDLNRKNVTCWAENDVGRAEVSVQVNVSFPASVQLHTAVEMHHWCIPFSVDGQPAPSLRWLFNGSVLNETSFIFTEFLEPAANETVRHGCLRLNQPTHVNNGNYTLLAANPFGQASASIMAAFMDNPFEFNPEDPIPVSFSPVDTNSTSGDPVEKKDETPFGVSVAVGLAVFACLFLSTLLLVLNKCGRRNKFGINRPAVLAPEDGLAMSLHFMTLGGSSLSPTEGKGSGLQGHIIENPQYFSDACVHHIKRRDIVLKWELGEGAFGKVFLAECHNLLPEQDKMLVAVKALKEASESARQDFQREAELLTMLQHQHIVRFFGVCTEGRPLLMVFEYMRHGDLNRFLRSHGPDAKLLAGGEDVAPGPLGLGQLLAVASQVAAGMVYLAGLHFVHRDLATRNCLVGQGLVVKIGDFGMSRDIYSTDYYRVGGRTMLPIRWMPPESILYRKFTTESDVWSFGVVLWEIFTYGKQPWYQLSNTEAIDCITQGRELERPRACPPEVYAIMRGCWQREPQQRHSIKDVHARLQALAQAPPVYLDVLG

Sequence of Beta-2 adrenergic receptor (Homo sapiens) (P07550 whole entry, looked up): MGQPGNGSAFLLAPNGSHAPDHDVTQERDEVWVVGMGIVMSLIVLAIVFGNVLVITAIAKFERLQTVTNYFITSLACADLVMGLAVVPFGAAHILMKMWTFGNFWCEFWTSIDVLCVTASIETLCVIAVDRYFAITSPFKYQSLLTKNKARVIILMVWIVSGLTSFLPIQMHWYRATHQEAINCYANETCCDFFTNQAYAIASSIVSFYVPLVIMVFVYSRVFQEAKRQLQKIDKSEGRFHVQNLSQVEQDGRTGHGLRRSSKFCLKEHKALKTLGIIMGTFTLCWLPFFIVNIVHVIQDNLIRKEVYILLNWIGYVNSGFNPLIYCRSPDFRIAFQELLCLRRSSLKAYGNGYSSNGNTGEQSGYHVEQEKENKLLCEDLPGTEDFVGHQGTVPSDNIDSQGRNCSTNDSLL

CCCOc1ccc([C@H]2[C@H](C(=O)O)[C@@H](c3ccc4c(c3)OCO4)CN2CC(=O)Nc2c(CC)cccc2CC)cc1 [A-192621]
% Inhibition of Control Specific Binding (Mean n=2) [1]: -0.2% | % Inhibition of Control Specific Binding (Mean n=2) [2]: 15.4% | % Inhibition of Control Specific Binding (Mean n=2) [3]: 2.4% | % Inhibition of Control Specific Binding (Mean n=2) [4]: -2.8% | % Inhibition of Control Specific Binding (Mean n=2) [5]: 5.5% | % Inhibition of Control Specific Binding (Mean n=2) [6]: 39.3% | % Inhibition of Control Specific Binding (Mean n=2) [7]: 23.9% | inhibition at 120 min, 10 µM [8]: 4.2% | residual activity [9]: 73% | residual activity [10]: 100% | residual activity [11]: 93% | residual activity [12]: 100% | residual activity [13]: 65% | residual activity [14]: 80% | residual activity [15]: 100% | residual activity [16]: 89% | residual activity [17]: 52% | residual activity [18]: 100% | residual activity [19]: 85% | residual activity [20]: 81% | residual activity [21]: 93% | residual activity [22]: 59% | residual activity [23]: 72% | residual activity [24]: 97% | residual activity [25]: 71% | residual activity [26]: 65% | residual activity [27]: 74% | residual activity [28]: 99% | residual activity [29]: 82% | residual activity [30]: 96% | residual activity [31]: 78% | residual activity [32]: 89% | residual activity [33]: 80% | residual activity [34]: 92% | residual activity [35]: 97% | residual activity [36]: 86% | residual activity [37]: 93% | residual activity [38]: 100% | residual activity [39]: 98% | residual activity [40]: 100% | residual activity [41]: 81% | residual activity [42]: 95% | residual activity [43]: 84%

CCCOc1ccc([C@@H]2[C@@H](C(=O)O)[C@H](c3ccc4c(c3)OCO4)CN2CC(=O)Nc2c(CC)cccc2CC)cc1 [A-1806262]
% Inhibition of Control Specific Binding (Mean n=2) [1]: 3.6% | % Inhibition of Control Specific Binding (Mean n=2) [2]: -1.6% | % Inhibition of Control Specific Binding (Mean n=2) [3]: -3.1% | % Inhibition of Control Specific Binding (Mean n=2) [4]: 13.4% | % Inhibition of Control Specific Binding (Mean n=2) [5]: -2.9% | % Inhibition of Control Specific Binding (Mean n=2) [6]: -9.7% | % Inhibition of Control Specific Binding (Mean n=2) [7]: 9.4% | inhibition at 120 min, 10 µM [8]: 15.4% | residual activity [9]: 80% | residual activity [10]: 96% | residual activity [11]: 96% | residual activity [12]: 100% | residual activity [13]: 73% | residual activity [14]: 96% | residual activity [15]: 80% | residual activity [16]: 79% | residual activity [17]: 100% | residual activity [18]: 100% | residual activity [19]: 99% | residual activity [20]: 91% | residual activity [21]: 88% | residual activity [22]: 100% | residual activity [23]: 94% | residual activity [24]: 100% | residual activity [25]: 81% | residual activity [26]: 73% | residual activity [27]: 87% | residual activity [28]: 95% | residual activity [29]: 96% | residual activity [30]: 100% | residual activity [31]: 81% | residual activity [32]: 98% | residual activity [33]: 76% | residual activity [34]: 94% | residual activity [35]: 80% | residual activity [36]: 97% | residual activity [37]: 97% | residual activity [38]: 100% | residual activity [39]: 90% | residual activity [40]: 100% | residual activity [41]: 100% | residual activity [42]: 96% | residual activity [43]: 97%
